From patent US4963570A, “1-(acetylaminophenyl)-2-aminopropanone derivatives and pharmaceutical compositions thereof” (Laboratoire L. Lafon, priority 1983, dated 1990)
“Also recorded” adds a separate entry of the source. Structures can show the parent of a compound that is named as a salt.

Assays:
male mice [1] = details: reference stimulant agents; cited from earlier work
rats [2] = assay: action on stereotypies in rats (α-methyltyrosine, haloperidol, reserpine); details: for suppression of induced stereotype movements by prior injection of alpha-methyltyrosine: i.p.
[3] = tested on: spleen cells expressing a direct IgM antibody response; assay: test for cells forming lysis areas (PFC IgM, Cunningham); format: in vivo, mouse; details: 0.1, 10 and 100 mg/kg
Experimental: Immunological assays were carried out in order to point out the interest of CRL 41 240 as an immunomodulating agent. Specifically, the test used was the so-called test for cells forming lysis areas, described by A. J. […] et al. ("Further improvements in the plaque technique for detecting simple antibody forming cells"), Immunology 14, pages 599-601 (1968).
The test for cells forming lysis areas (or PFC IgM) explores the humoral immunity. Four days after immunization with a T-dependent antigen (in this case red blood corpuscles of sheep), the spleen cells expressing a direct IgM antibody response are counted. The mice used for this purpose are conventional female OF1 mice devoid of specific pathogenic organisms, weighing from 20 to 30 g and divided up into a control group of 14 animals and groups each containing 7 animals per dose and per product to be studied, administered orally on the same day as the antigen. An activity index I is calculated for each dose of product according to the following equation: [formula]
This test is performed at least twice for each dose of test product [C(control amimals), 0.01, 0.1, 10 and 100 mg/kg] and a statistical study is undertaken using the Student t test after variance analysis on the number of lyses per spleen.

[4] = tested on: delayed hypersensitivity to the red blood corpuscles of sheep; assay: delayed hypersensitivity to the red blood corpuscles of sheep (Miller); format: in vivo
CNS = assay: overall neuropsychopharmacological (CNS) profile; format: in vivo, mouse; rat; details: i.p.
Experimental: The neuropsychopharmacological study of CRL 41 219 was carried out as indicated above for CRL 41 224.
The neuropsychopharmacological study of CRL 41 220 was carried out in accordance with the procedures given above for CRL 41 224.

immunological properties = assay: immunological properties, overall; format: in vivo; details: dose not stated
Description: The present 1-(acetylaminophenyl)-2-aminopropanone derivatives are useful in therapy. They all act on the CNS, more precisely as antidepressants. They have a stimulant or excitant component in their neuropsychopharmacological profile.

mice [5] = assay: interaction with apomorphine in mice; format: in vivo, mouse; details: i.p.
Experimental: Groups of 6 mice receive CRL 41 224 0.5 hour before the subcutaneous injection of 1 or 16 mg/kg of apomorphine.

mice [6] = assay: action on the behavioral despair; format: in vivo, mouse; details: i.p.; for period of immobility or "despair": dose not stated
Description: Half an hour after they have received CRL 41 224, groups of 6 mice are placed in a beaker filled with water to a height of 6 cm. The total period of immobility between the 2nd and 6th minutes following immersion is noted.

rats [7] = assay: interaction with amphetamine; format: in vivo, rat; details: i.p.
Experimental: Amphetamine (2 mg/kg) is injected intraperitoneally into groups of 6 rats 30 minutes after the administration of CRL 41 224.

mice [8] = assay: overall behavior and reactivities in mice; format: in vivo, mouse; details: i.p.; for excitation in mice: dose not stated
Experimental: (§1) Groups of three animals are observed before and then 0.25 hour, 0.50 hour, 1 hour, 2 hours, 3 hours and 24 hours after the administration of CRL 41 224.

mice [9] = assay: motility reduced by habituation to the enclosure; format: in vivo, mouse; details: i.p.
Experimental: After they have stayed in the actimeters for 18 hours, the mice (6 per dose, 12 control animals) receive CRL 41 224. They are immediately returned to their respective enclosures and, half an hour later, their motility is recorded for 30 minutes.

mice [10] = assay: four plate test, traction and electric shock; format: in vivo, mouse; details: i.p.
Experimental: The test is performed on groups of 10 mice 30 minutes after the administration of CRL 41 224.

mice [11] = assay: interaction with barbital; format: in vivo, mouse; details: i.p.; dose not stated
Experimental: Half an hour after the administration of CRL 41 224, groups of 10 mice receive an intraperitoneal injection of barbital (220 mg/kg).

mice [12] = assay: interaction with reserpine; format: in vivo, mouse; details: i.p.
Experimental: Four hours after the intraperitoneal injection of 2.5 mg/kg of reserpine, groups of 6 mice receive CRL 41 224.

mice [13] = assay: interaction with oxotremorine; format: in vivo, mouse; details: i.p.
Experimental: CRL 41 224 is administered to groups of 6 mice 0.5 hour before the intraperitoneal injection of 0.5 mg/kg of oxotremorine.

mice [14] = assay: action on the spontaneous motility (actimeter); format: in vivo, mouse; details: mice, i.p.; dose not stated
Experimental: 0.5 hour after they have received CRL 41 224, the mice (6 per dose, 12 control animals) are placed in an actimeter, where their motility is recorded for 30 minutes.

[15] = tested on: peripheral α-adrenergic stimulation; assay: signs of peripheral adrenergic stimulation; format: in vivo, mouse; rat; details: i.p.; dose not stated
Experimental: as §1

rats [16] = assay: interaction with apomorphine in rats; format: in vivo, rat; details: i.p., dose not stated
Experimental: CRL 41 224 is administered to groups of 6 rats 0.5 hour before the subcutaneous injection of 0.5 mg/kg of apomorphine.

mice [17] = assay: toxicity to grouped mice compared with isolated mice; format: in vivo, mouse
rats [18] = assay: overall behavior and reactivities in rats; format: in vivo, rat; details: i.p., dose not stated
Experimental: as §1

mice [19] = assay: motility reduced by hypoxic aggression; format: in vivo, mouse; details: i.p.; for motor recovery after hypoxic aggression: dose not stated
Experimental: Half an hour after they have received CRL 41 224, the mice (10 per dose, 20 control animals) are subjected to acute hypobaric anoxia [pressure reduction of 600 mm Hg (i.e. about 8×10^4 Pa) in 90 seconds; release of vacuum in 45 seconds] and are then placed in an actimeter, where their motility is recorded for 10 minutes.

male mice [20] = assay: acute toxicity, intraperitoneal (lethal doses); format: in vivo, mouse; details: i.p.
Experimental: By intraperitoneal administration to male mice, the LD-30 (lethal dose for 30% of the animals tested) is of the order of 128 mg/kg and the LD-50 is of the order of about 200 mg/kg.

## CN1Cc2c(N)cccc2C(c2ccccc2)C1 (stereo not shown) [nomifensine]
Male mice [1]
  motor effects with I.V.C. administration of noradrenaline: potentialized by I.V.C. administration of noradrenaline

## CC(N)Cc1ccccc1 (stereo not shown) [amphetamine, reference compound]
Male mice [1]
  motor effects with I.V.C. administration of noradrenaline: potentialized by I.V.C. administration of noradrenaline
Rats [2]; haloperidol 0.25 mg/kg i.p. 0.5 h before
  effect of haloperidol on induced stereotypies: almost totally prevents the appearance of stereotypies
Rats [2]; haloperidol 0.5 mg/kg i.p. 0.5 h before
  effect of haloperidol on induced stereotypies: totally inhibits the said stereotypies

## CC(=O)Nc1cccc(C(=O)C(C)N2CCCCC2)c1 (stereo not shown) [CRL 41 262, 1-(3-acetylaminophenyl)-2-piperidinopropanone hydrochloride]
[3]
  immunostimulant activity, PFC IgM test: immunostimulant activity
[4]; oral, 10 and 100 mg/kg
  immunostimulant activity, delayed hypersensitivity: immunostimulant activity
CNS; mice and rats, dose not stated
  overall action on the CNS: antidepressant and stimulant effects on the CNS
Immunological properties; hydrochloride
  immunological properties, overall: beneficial immunomodulating effects; also recorded: particularly valuable as an immunomodulator

## CCCNC(C)C(=O)c1ccc(NC(C)=O)cc1 (stereo not shown) [CRL 41 212]
Mice [5]; dose not stated
  hypothermia induced by apomorphine: antagonism of the hypothermia induced by apomorphine
Mice [6]
  period of immobility or "despair": a reduction in the immobility
Rats [7]; rats, dose not stated
  stereotypies induced by amphetamine: potentiation of the stereotypies induced by apomorphine or amphetamine
Mice [8]
  excitation in mice: excitation with hyperreactivity in mice
Mice [9]; dose not stated
  motor activity after habituation to the enclosure: a resumption in the motor activity of mice accustomed to their enclosure
Mice [10]; dose not stated
  convulsant effects of electric shock: anticonvulsant effects
Mice [11]
  sleep induced by barbital: antagonism of the sleep induced by barbital
Mice [12]; dose not stated
  hypothermia induced by reserpine: antagonism of the hypothermia induced by apomorphine, oxotremorine or reserpine
  ptosis induced by reserpine: antagonism of the ptosis induced by reserpine
Mice [13]; dose not stated
  hypothermia induced by oxotremorine: antagonism of the hypothermia induced by apomorphine, oxotremorine
  trembling caused by oxotremorine: antagonism of the trembling caused by oxotremorine
Mice [14]
  spontaneous motility / motor activity: an increase in the spontaneous motility in mice
[15]
  exophthalmos: absent
  mydriasis: mydriasis
  peripheral adrenergic stimulation, overall: effects which may reflect peripheral adrenergic stimulation
  salivation: absent
Rats [16]
  stereotypies induced by apomorphine: potentiation of the stereotypies induced by apomorphine
Rats [2]
  suppression of induced stereotype movements by prior injection of alpha-methyltyrosine: not suppressed
Mice [17]
  toxicity to grouped mice compared with isolated mice: do not increase the toxicity to grouped mice
Rats [18]
  stereotype movements in rats: stereotype movements in rats
CNS; mice and rats, dose not stated
  overall action on the CNS: stimulant effects; also recorded: antidepressant effects
Mice [19]
  motor recovery after hypoxic aggression: an improvement in the motor recovery in mice after acute hypoxia

## CC(=O)Nc1ccc(C(=O)C(C)N2CCSCC2)cc1 (stereo not shown) [CRL 41 247]
Mice [5]; strong doses
  hypothermia induced by apomorphine: very moderate antagonism of the hypothermia induced by apomorphine
Mice [6]; strong/high doses
  period of immobility of mice forcibly immersed: a reduction in the period of immobility
Rats [7]; strong doses
  stereotypies induced by amphetamine: potentiation of the stereotypies induced by amphetamine
Mice [8]; 256 mg/kg, 30 minutes after administration
  hypothermia, temperature change: -3.3 °C
Mice [8]; strong/high doses
  body temperature (hypothermia): hypothermia
Mice [9]; strong doses
  motor activity after habituation to the enclosure: an increase in the motor activity of mice after habituation to their enclosure
Mice [10]; strong/high dose
  convulsant effects of electric shock: a reduction in the convulsant effects of electric shock
Mice [12]; strong doses
  hypothermia induced by reserpine: no antagonism towards the hypothermia induced by reserpine
[4]; dose not stated
  cell activity (technique of Miller et al.): stimulates cell activity
Mice [13]; strong/high doses
  hypothermia induced by oxotremorine: very moderate antagonism of the hypothermia induced by apomorphine and oxotremorine
CNS; strong/high doses
  overall action on the CNS: discreet antidepressant effects; also recorded: stimulant effects
Mice [19]; strong doses
  motor activity after acute hypoxia: an increase in the motor activity of mice after habituation to their enclosure and after acute hypoxia
Immunological properties
  immunological properties, overall: beneficial immunomodulating effects
Male mice [20]
  LD-0 (maximum non-lethal dose): greater than 512 mg/kg
  LD-60: about 1000 mg/kg

## COC(=O)C(c1ccccc1)C1CCCCN1 (stereo not shown) [methylphenidate, reference compound]
Male mice [1]
  motor effects with I.V.C. administration of noradrenaline: potentialized by I.V.C. administration of noradrenaline
Rats [2]; reserpine 4 mg/kg i.p. 24 hours before
  effect of reserpine on induced stereotypies: only a moderate reduction of the stereotypies

## COC(=O)[C@H]1[C@@H](OC(=O)c2ccccc2)C[C@@H]2CC[C@H]1N2C [cocaine]
Male mice [1]
  motor effects with I.V.C. administration of noradrenaline: potentialized by I.V.C. administration of noradrenaline

## CNC(C)C(=O)c1ccc(NC(C)=O)cc1 (stereo not shown) [CRL 41 217]
Mice [5]; dose not stated
  hypothermia induced by apomorphine: antagonism of the hypothermia induced by apomorphine
Mice [6]
  period of immobility or "despair": a reduction in the immobility
Rats [7]; rats, dose not stated
  stereotypies induced by amphetamine: potentiation of the stereotypies induced by apomorphine or amphetamine
Mice [8]
  excitation in mice: excitation with hyperreactivity in mice
Mice [9]; dose not stated
  motor activity after habituation to the enclosure: a resumption in the motor activity of mice accustomed to their enclosure
Mice [10]; dose not stated
  convulsant effects of electric shock: potentiate the convulsant effects of electric shock
Mice [11]
  sleep induced by barbital: antagonism of the sleep induced by barbital
Mice [12]; dose not stated
  hypothermia induced by reserpine: antagonism of the hypothermia induced by apomorphine, oxotremorine or reserpine
  ptosis induced by reserpine: antagonism of the ptosis induced by reserpine
Mice [13]; dose not stated
  hypothermia induced by oxotremorine: antagonism of the hypothermia induced by apomorphine, oxotremorine
  trembling caused by oxotremorine: antagonism of the trembling caused by oxotremorine
Mice [14]
  spontaneous motility / motor activity: an increase in the spontaneous motility in mice
[15]
  exophthalmos: absent
  mydriasis: mydriasis
  peripheral adrenergic stimulation, overall: effects which may reflect peripheral adrenergic stimulation
  salivation: absent
Rats [16]
  stereotypies induced by apomorphine: potentiation of the stereotypies induced by apomorphine
Rats [2]
  suppression of induced stereotype movements by prior injection of alpha-methyltyrosine: not suppressed
Mice [17]
  toxicity to grouped mice compared with isolated mice: do not increase the toxicity to grouped mice
Rats [18]
  stereotype movements in rats: stereotype movements in rats
CNS; mice and rats, dose not stated
  overall action on the CNS: stimulant effects; also recorded: antidepressant effects
Mice [19]
  motor recovery after hypoxic aggression: an improvement in the motor recovery in mice after acute hypoxia
